From patent US7517884B2 (Kalypsys Inc., priority 1998, dated 2009) come the findings set out here.

Assay type in all cases: cell-based, murine and human
Common to all, as to conditions: GAL4-PPAR LBD chimera

One assay deals with T1, PPAR-alpha (UniProt Q07869).
T1 sequence (Q07869 1-468): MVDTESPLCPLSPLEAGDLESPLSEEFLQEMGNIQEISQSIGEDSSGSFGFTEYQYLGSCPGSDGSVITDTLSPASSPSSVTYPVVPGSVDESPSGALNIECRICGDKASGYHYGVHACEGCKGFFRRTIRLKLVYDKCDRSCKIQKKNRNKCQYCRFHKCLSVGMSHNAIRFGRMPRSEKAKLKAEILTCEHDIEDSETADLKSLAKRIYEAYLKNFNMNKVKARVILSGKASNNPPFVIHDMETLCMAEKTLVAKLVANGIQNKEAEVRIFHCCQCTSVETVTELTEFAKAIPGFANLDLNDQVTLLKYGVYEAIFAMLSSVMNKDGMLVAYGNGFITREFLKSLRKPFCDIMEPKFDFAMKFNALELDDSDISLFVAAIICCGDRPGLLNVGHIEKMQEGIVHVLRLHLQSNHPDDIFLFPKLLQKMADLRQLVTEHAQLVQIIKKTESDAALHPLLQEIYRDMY
Kind of assay: PPAR-alpha transactivation assay (GAL4 chimera, luciferase reporter) in CV-1 cells. In short, it runs like this: (§1)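 CV-1 cells transiently transfected with murine or human PPAR-alpha, -gamma or -delta ligand-binding domain fused to GAL4 DNA-binding domain plus a GAL4-site luciferase reporter. After replating in phenol-red-free DME with 5% delipidated calf serum, cells were exposed to compound 20-24 h; luciferase read-out gave EC50.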

A further assay deals with T2, PPAR-delta (UniProt Q03181).
T2 sequence (Q03181 1-441): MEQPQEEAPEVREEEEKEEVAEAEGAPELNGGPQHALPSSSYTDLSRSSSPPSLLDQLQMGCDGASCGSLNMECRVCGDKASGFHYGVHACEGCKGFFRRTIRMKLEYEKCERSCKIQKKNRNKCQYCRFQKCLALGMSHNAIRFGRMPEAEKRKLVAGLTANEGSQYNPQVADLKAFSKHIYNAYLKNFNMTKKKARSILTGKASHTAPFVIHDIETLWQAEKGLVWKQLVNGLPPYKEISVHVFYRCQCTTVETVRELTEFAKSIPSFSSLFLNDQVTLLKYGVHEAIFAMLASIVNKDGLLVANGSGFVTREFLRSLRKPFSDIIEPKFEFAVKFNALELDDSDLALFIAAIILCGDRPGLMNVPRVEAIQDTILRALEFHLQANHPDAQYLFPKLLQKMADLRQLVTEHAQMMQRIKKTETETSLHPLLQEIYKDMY
Kind of assay: PPAR-delta transactivation assay (GAL4 chimera, luciferase reporter) in CV-1 cells. In short, it runs like this: as §1
A general note: Reporter assays use an easily measured gene product as a stand-in for the process of interest.

The target in another assay is T3, PPAR-gamma (UniProt P37231).
T3 sequence (P37231 1-505): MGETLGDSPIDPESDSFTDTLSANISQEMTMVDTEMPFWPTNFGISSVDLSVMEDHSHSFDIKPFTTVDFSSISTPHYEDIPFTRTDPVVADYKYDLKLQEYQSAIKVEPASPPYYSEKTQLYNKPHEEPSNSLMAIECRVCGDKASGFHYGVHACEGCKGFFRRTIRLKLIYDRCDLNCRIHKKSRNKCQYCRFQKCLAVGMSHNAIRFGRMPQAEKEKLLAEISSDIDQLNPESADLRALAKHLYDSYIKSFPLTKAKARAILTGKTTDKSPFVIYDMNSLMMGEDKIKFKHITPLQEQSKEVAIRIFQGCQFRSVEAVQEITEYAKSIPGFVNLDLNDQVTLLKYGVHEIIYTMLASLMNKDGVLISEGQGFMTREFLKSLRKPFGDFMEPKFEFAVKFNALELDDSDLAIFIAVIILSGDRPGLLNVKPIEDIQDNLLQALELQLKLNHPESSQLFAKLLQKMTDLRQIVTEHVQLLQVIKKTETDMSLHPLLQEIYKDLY
Put plainly: PPAR-gamma transactivation assay (GAL4 chimera, luciferase reporter) in CV-1 cells. In outline: as §1

Bounds are passed on as bounds.

On to `C[C@@H]1CN(c2ccc(SC(F)(F)F)cc2)C[C@H](C)N1S(=O)(=O)c1cccc2c1CC(C(=O)O)C2` (stereo partly drawn) [Example 101, 4-[cis-2,6-dimethyl-4-(4-trifluoromethylsulfanyl-phenyl)-piperazine-1-sulfonyl]-indan-2-carboxylic acid], for which the concentration giving a half-maximal response (EC50) – broadly, the concentration that produces a half-maximal response – was 5 to 100 µM on PPAR-alpha, less than 5 µM at PPAR-delta and 5 to 100 µM at PPAR-gamma.

Turning to `O=C(O)C1Cc2cccc(S(=O)(=O)N3CCN(c4ccc(OC(F)(F)F)cc4)CC3)c2C1` (stereo not drawn) [Example 102, 4-[4-(-trifluoromethoxy-phenyl)-piperazine-1-sulfonyl]-indan-2-carboxylic acid], the EC50 on PPAR-alpha, at PPAR-delta and on PPAR-gamma was less than 5 µM throughout.

For `C[C@@H]1CN(c2ccc(Cl)cc2Cl)C[C@H](C)N1S(=O)(=O)c1ccc2c(c1)C(C(=O)O)CC2` (stereo partly drawn) [Example 103, 6-[4-(2,4-dichloro-phenyl)-cis-2,6-dimethyl-piperazine-1-sulfonyl]-indan-1-carboxylic acid], the EC50 is 5 to 100 µM on PPAR-alpha, less than 5 µM on PPAR-delta and 5 to 100 µM on PPAR-gamma.

Consider `C[C@@H]1CN(c2ccc(C(F)(F)F)cc2)C[C@H](C)N1S(=O)(=O)c1ccc2c(c1)C(C(=O)O)CC2` (stereo partly drawn) [Example 104, 6-[cis-2,6-dimethyl-4-(4-trifluoromethyl-phenyl)-piperazine-1-sulfonyl]-indan-1-carboxylic acid], for which the EC50 was less than 5 µM at PPAR-alpha, less than 5 µM on PPAR-delta and 5 to 100 µM on PPAR-gamma.

Consider `C[C@@H]1CN(c2ccc(C(F)(F)F)cc2)C[C@H](C)N1S(=O)(=O)c1cccc2c1CC(C(=O)O)C2` (stereo partly drawn) [Example 105, 4-[cis-2,6-Dimethyl-4-(4-trifluoromethyl-phenyl)-piperazine-1-sulfonyl]-indan-2-carboxylic acid], for which the half-maximal effective concentration (EC50) is 5 to 100 µM at PPAR-alpha, less than 5 µM at PPAR-delta and 5 to 100 µM at PPAR-gamma.

On to `C[C@@H]1CN(c2ccc(C(C)(C)C)cc2)C[C@H](C)N1S(=O)(=O)c1cccc2c1CC(C(=O)O)C2` (stereo partly drawn) [Example 106, 4-[4-(4-tert-butyl-phenyl)-cis-2,6-dimethyl-piperazine-1-sulfonyl]-indan-2-carboxylic acid], for which the concentration for a half-maximal effect (EC50) is 5 to 100 µM on PPAR-alpha, less than 5 µM on PPAR-delta and 5 to 100 µM on PPAR-gamma.

Consider `C[C@@H]1CN(c2cc(Cl)c(C(F)(F)F)cn2)C[C@H](C)N1S(=O)(=O)c1cccc2c1CC(C(=O)O)C2` (stereo partly drawn) [Example 107, 4-[4-(4-Chloro-5-trifluoromethyl-pyridin-2-yl)-cis-2,6-dimethylpiperazine-1-sulfonyl]-indan-2-carboxylic acid], for which the EC50 was greater than 100 µM on PPAR-alpha, less than 5 µM at PPAR-delta and greater than 100 µM on PPAR-gamma.

As to `C[C@@H]1CN(c2ccc(OC(F)(F)F)cc2)C[C@H](C)N1S(=O)(=O)c1cccc2c1CC(C(N)=O)C2` (stereo partly drawn) [Example 108, 4-[cis-2,6-dimethyl-4-(4-trifluoromethoxy-phenyl)-piperazine-1-sulfonyl]-indan-2-carboxylic acid amide], the EC50 on PPAR-alpha was 5 to 100 µM; on PPAR-delta it was less than 5 µM; on PPAR-gamma, 5 to 100 µM.

Turning to `C[C@@H]1CN(c2ccc(OC(F)(F)F)cc2)C[C@H](C)N1S(=O)(=O)c1cccc2c1CC(c1nnn[nH]1)C2` (stereo partly drawn) [Example 109, cis-2,6-dimethyl-1-[2-(1H-tetrazol-5-yl)-indane-4-sulfonyl]-4-(4-trifluoromethoxy-phenyl)-piperazine], the EC50 on PPAR-alpha is greater than 100 µM; on PPAR-delta it was less than 5 µM; at PPAR-gamma, 5 to 100 µM.

On to `C[C@@H]1CN(Cc2ccc(OC(F)(F)F)cc2)C[C@H](C)N1S(=O)(=O)c1ccc2scc(CC(=O)O)c2c1` [Example 110, {5-[cis-2,6-dimethyl-4-(4-trifluoromethoxy-benzyl)-piperazine-1-sulfonyl]-benzo[b]thiophen-3-yl}-acetic acid], for which the concentration giving a half-maximal response (EC50) is greater than 100 µM on PPAR-alpha, less than 5 µM on PPAR-delta and 5 to 100 µM on PPAR-gamma.

For the compound `C[C@@H]1CN(Cc2ccc(Cl)c(Cl)c2)C[C@H](C)N1S(=O)(=O)c1cccc2c1CC(C(=O)O)C2` (stereo partly drawn) [Example 111], the EC50 at PPAR-alpha was greater than 100 µM; at PPAR-delta it was less than 5 µM; on PPAR-gamma, 5 to 100 µM.

With `O=C(O)C1Cc2cccc(S(=O)(=O)N3CCN(c4cccc(OCC(F)(F)F)c4)CC3)c2C1` (stereo not drawn) [Example 112, 4-{4-[3-(2,2,2-trifluoro-ethoxy)-phenyl]-piperazine-1-sulfonyl}-indan-2-carboxylic acid], the 50% effective concentration (EC50) at PPAR-alpha, at PPAR-delta and at PPAR-gamma was 5 to 100 µM in each case.

For `O=C(O)C1Cc2cccc(S(=O)(=O)N3CCN(c4cccc(OC(F)(F)F)c4)CC3)c2C1` (stereo not drawn) [Example 113, 4-[4-(3-Trifluomethoxy-phenyl)-piperazine-1-sulfonyl]-indan-2-carboxylic acid], the EC50 was 5 to 100 µM at PPAR-alpha, less than 5 µM at PPAR-delta and 5 to 100 µM on PPAR-gamma.

In the case of `O=C(O)C1Cc2cccc(S(=O)(=O)N3CCN(c4ccc(OCC(F)(F)F)cc4)CC3)c2C1` (stereo not drawn) [Example 114, 4-{4-[4-(2,2,2-Trifluoro-ethoxy)-phenyl]-piperazine-1-sulfonyl}-indan-2-carboxylic acid], the EC50 on PPAR-alpha, at PPAR-delta and at PPAR-gamma was 5 to 100 µM each time.

Turning to `C[C@@H]1CN(c2cccc(OC(F)(F)F)c2)C[C@H](C)N1S(=O)(=O)c1cccc2c1CC(C(=O)O)C2` (stereo partly drawn) [Example 115, 4-[cis-2,6-dimethyl-4-(3-trifluoromethoxyphenyl)piperazin-1-ylsulfonyl]-2,3-dihydro-1H-indene-2-carboxylic acid], the EC50 on PPAR-alpha is greater than 100 µM; at PPAR-delta it was less than 5 µM; at PPAR-gamma, 5 to 100 µM.

As to `C[C@H]1CN(S(=O)(=O)c2cccc3c2CC(C(=O)O)C3)[C@@H](C)CN1c1ccc(C(F)(F)F)cn1` (stereo partly drawn) [Example 116, 4-[2S,5S-dimethyl-4-(5-trifluoromethyl-pyridin-2-yl)-piperazine-1-sulfonyl]-indan-2(R,S)-carboxylic acid], the EC50 at PPAR-alpha is 5 to 100 µM; on PPAR-delta, less than 5 µM; on PPAR-gamma, 5 to 100 µM.

For the compound `O=C(O)C1Cc2cccc(S(=O)(=O)N3C4CCCC3CN(c3ccc(OC(F)(F)F)cc3)C4)c2C1` (stereo not drawn) [Example 117, 4-[3-(4-trifluoromethoxy-phenyl)-3,9-diaza-bicyclo[3.3.1]nonane-9-sulfonyl]-indan-2-carboxylic acid], the EC50 at PPAR-alpha is 5 to 100 µM; on PPAR-delta, less than 5 µM; on PPAR-gamma, 5 to 100 µM.

Consider `C[C@@H]1CN(c2ccc(Cl)c(Br)c2)C[C@H](C)N1S(=O)(=O)c1cccc2c1CC(C(=O)O)C2` (stereo partly drawn) [Example 120, 4-(4-(3-bromo-4-chlorophenyl)-cis-2,6-dimethylpiperazin-1-ylsulfonyl)-2,3-dihydro-1H-indene-2-carboxylic acid], for which the half-maximal effective concentration (EC50) on PPAR-alpha was greater than 100 µM; at PPAR-delta, less than 5 µM; at PPAR-gamma, greater than 100 µM.

Turning to `C[C@@H]1CN(c2cc(F)c(C(F)(F)F)c(F)c2)C[C@H](C)N1S(=O)(=O)c1cccc2c1CC(C(=O)O)C2` (stereo partly drawn) [Example 121, 4-(4-(3,5-Difluoro-4-(trifluoromethyl)phenyl)-cis-2,6-dimethylsulfonyl)-2,3-dihydro-1H-indene-2-carboxylic acid], the EC50 is 5 to 100 µM at PPAR-alpha, less than 5 µM at PPAR-delta and greater than 100 µM at PPAR-gamma.

Regarding `C[C@@H]1CN(c2ccc(C(F)(F)F)c(Br)c2)C[C@H](C)N1S(=O)(=O)c1cccc2c1CC(C(=O)O)C2` (stereo partly drawn) [Example 122, 4-(4-(3-Bromo-4-(trifluoromethyl)phenyl)-cis-2,6-dimethylpiperazin-1-ylsulfonyl)-2,3-dihydro-1H-indene-2-carboxylic acid], the EC50 at PPAR-alpha is greater than 100 µM; on PPAR-delta, less than 5 µM; on PPAR-gamma, greater than 100 µM.
